System: 777334-354-R2-J4-PDC tumor spheroids with HUVEC/MSC, viability
Experiment: Anticancer human tumor 777334-354-R2-J4-PDC patient-derived pancreatic adenocarcinoma cell line growth inhibition [GQUAD]
Settings: for IC50: curve of first compound; for viability, T/C: stronger effect = lower value
Summary of the method: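 Tumor cells were grown as complex spheroids with HUVEC endothelial cells and mesenchymal stem cells as stroma. G-quadruplex stabilizers were combined with targeted agents over half-log dilutions from near the clinical Cmax, or from 10 microM.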

[1] = second compound 0.0316 µM, first compound 0.0316 µM
[2] = second compound 0.0316 µM, first compound 0.1 µM
[3] = second compound 0.0316 µM, first compound 0.316 µM
[4] = second compound 0.0316 µM, first compound 1 µM
[5] = second compound 0.0316 µM, first compound 3.16 µM
[6] = second compound 0.0316 µM, first compound 10 µM
[7] = second compound 0.1 µM, first compound 0.0316 µM
[8] = second compound 0.1 µM, first compound 0.1 µM
[9] = second compound 0.1 µM, first compound 0.316 µM
[10] = second compound 0.1 µM, first compound 1 µM
[11] = second compound 0.1 µM, first compound 3.16 µM
[12] = second compound 0.1 µM, first compound 10 µM
[13] = second compound 0.316 µM, first compound 0.0316 µM
[14] = second compound 0.316 µM, first compound 0.1 µM
[15] = second compound 0.316 µM, first compound 0.316 µM
[16] = second compound 0.316 µM, first compound 1 µM
[17] = second compound 0.316 µM, first compound 3.16 µM
[18] = second compound 0.316 µM, first compound 10 µM
[19] = second compound 1 µM, first compound 0.0316 µM
[20] = second compound 1 µM, first compound 0.1 µM
[21] = second compound 1 µM, first compound 0.316 µM
[22] = second compound 1 µM, first compound 1 µM
[23] = second compound 1 µM, first compound 3.16 µM
[24] = second compound 1 µM, first compound 10 µM
[25] = second compound 3.16 µM, first compound 0.0316 µM
[26] = second compound 3.16 µM, first compound 0.1 µM
[27] = second compound 3.16 µM, first compound 0.316 µM
[28] = second compound 3.16 µM, first compound 1 µM
[29] = second compound 3.16 µM, first compound 3.16 µM
[30] = second compound 3.16 µM, first compound 10 µM
[31] = second compound 10 µM, first compound 0.0316 µM
[32] = second compound 10 µM, first compound 0.1 µM
[33] = second compound 10 µM, first compound 0.316 µM
[34] = second compound 10 µM, first compound 1 µM
[35] = second compound 10 µM, first compound 3.16 µM
[36] = second compound 10 µM, first compound 10 µM
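Also: spheroids exposed to compounds for 7 days before readout.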

SMILES: C=CCn1c(=O)c2cnc(Nc3ccc(N4CCN(C)CC4)cc3)nc2n1-c1cccc(C(C)(C)O)n1 + CN(C)c1ccc(Nc2c3ccc(NC(=O)CCN4CCCC4)cc3nc3cc(NC(=O)CCN4CCCC4)ccc23)cc1
- IC50 (second compound 0.0316 µM): 746 nM
- IC50 (second compound 0.1 µM): 907 nM
- IC50 (second compound 0.316 µM): 961 nM
- IC50 (second compound 1 µM): 793 nM
- IC50 (second compound 3.16 µM): 732 nM
- IC50 (second compound 10 µM): 576 nM
- viability, T/C [1]: 101%
- viability, T/C [2]: 94.8%
- viability, T/C [3]: 81.6%
- viability, T/C [4]: 38.8%
- viability, T/C [5]: 36.5%
- viability, T/C [6]: 37.6%
- viability, T/C [7]: 103%
- viability, T/C [8]: 91.1%
- viability, T/C [9]: 84.6%
- viability, T/C [10]: 46.1%
- viability, T/C [11]: 36.8%
- viability, T/C [12]: 35.9%
- viability, T/C [13]: 105%
- viability, T/C [14]: 89.8%
- viability, T/C [15]: 77.2%
- viability, T/C [16]: 45.9%
- viability, T/C [17]: 38.4%
- viability, T/C [18]: 33.9%
- viability, T/C [19]: 87%
- viability, T/C [20]: 82.5%
- viability, T/C [21]: 78%
- viability, T/C [22]: 42.8%
- viability, T/C [23]: 38.9%
- viability, T/C [24]: 35.2%
- viability, T/C [25]: 92.9%
- viability, T/C [26]: 81.4%
- viability, T/C [27]: 68%
- viability, T/C [28]: 41%
- viability, T/C [29]: 39.2%
- viability, T/C [30]: 33.2%
- viability, T/C [31]: 90.1%
- viability, T/C [32]: 81.7%
- viability, T/C [33]: 59.3%
- viability, T/C [34]: 39.8%
- viability, T/C [35]: 34.1%
- viability, T/C [36]: 25.1%

SMILES: CC(C)(O)C1CCC(Nc2ccc3ncc(-c4cccc(C(F)(F)F)c4)n3n2)CC1 (stereo not drawn) + Cc1cnc(CNC(=O)c2c(=O)c3ccc(N4CCCN(C)CC4)nc3n3c2sc2ccccc23)cn1
- IC50 (second compound 0.0316 µM): 880 nM
- IC50 (second compound 0.1 µM): 806 nM
- IC50 (second compound 0.316 µM): 838 nM
- IC50 (second compound 1 µM): 913 nM
- IC50 (second compound 3.16 µM): 776 nM
- IC50 (second compound 10 µM): < 31.6 nM
- viability, T/C [1]: 105%
- viability, T/C [2]: 74%
- viability, T/C [3]: 94.5%
- viability, T/C [4]: 44.8%
- viability, T/C [5]: 27.7%
- viability, T/C [6]: 35.2%
- viability, T/C [7]: 85%
- viability, T/C [8]: 74%
- viability, T/C [9]: 79.5%
- viability, T/C [10]: 43.2%
- viability, T/C [11]: 29.1%
- viability, T/C [12]: 35.4%
- viability, T/C [13]: 80.8%
- viability, T/C [14]: 71.5%
- viability, T/C [15]: 71.5%
- viability, T/C [16]: 46.5%
- viability, T/C [17]: 29.1%
- viability, T/C [18]: 31.3%
- viability, T/C [19]: 63%
- viability, T/C [20]: 67.4%
- viability, T/C [21]: 67%
- viability, T/C [22]: 48.6%
- viability, T/C [23]: 33%
- viability, T/C [24]: 30.7%
- viability, T/C [25]: 61.4%
- viability, T/C [26]: 68.9%
- viability, T/C [27]: 56.9%
- viability, T/C [28]: 48.4%
- viability, T/C [29]: 24.4%
- viability, T/C [30]: 23.9%
- viability, T/C [31]: 51.5%
- viability, T/C [32]: 40.1%
- viability, T/C [33]: 48.3%
- viability, T/C [34]: 36.1%
- viability, T/C [35]: 0.23%
- viability, T/C [36]: 0.19%

SMILES: COc1ncnc(C2CC2)c1-c1ncc2cnn(Cc3ccc(-c4nc(C(F)(F)F)cn4C(C)C)cc3)c2n1 + Cc1cnc(CNC(=O)c2c(=O)c3ccc(N4CCCN(C)CC4)nc3n3c2sc2ccccc23)cn1
- IC50 (second compound 0.0316 µM): > 10000 nM
- IC50 (second compound 0.1 µM): > 10000 nM
- IC50 (second compound 0.316 µM): > 10000 nM
- IC50 (second compound 1 µM): > 10000 nM
- IC50 (second compound 3.16 µM): > 10000 nM
- IC50 (second compound 10 µM): > 10000 nM
- viability, T/C [1]: 106%
- viability, T/C [2]: 94.8%
- viability, T/C [3]: 101%
- viability, T/C [4]: 92.5%
- viability, T/C [5]: 106%
- viability, T/C [6]: 95%
- viability, T/C [7]: 91.5%
- viability, T/C [8]: 83.8%
- viability, T/C [9]: 97.6%
- viability, T/C [10]: 80.8%
- viability, T/C [11]: 92.4%
- viability, T/C [12]: 90.3%
- viability, T/C [13]: 82.8%
- viability, T/C [14]: 81%
- viability, T/C [15]: 72%
- viability, T/C [16]: 85.8%
- viability, T/C [17]: 87.8%
- viability, T/C [18]: 86.5%
- viability, T/C [19]: 65.3%
- viability, T/C [20]: 75.7%
- viability, T/C [21]: 67.4%
- viability, T/C [22]: 76.3%
- viability, T/C [23]: 77.4%
- viability, T/C [24]: 82.1%
- viability, T/C [25]: 64.3%
- viability, T/C [26]: 73.5%
- viability, T/C [27]: 55%
- viability, T/C [28]: 65.7%
- viability, T/C [29]: 80.8%
- viability, T/C [30]: 70.3%
- viability, T/C [31]: 55.5%
- viability, T/C [32]: 63.6%
- viability, T/C [33]: 57.9%
- viability, T/C [34]: 59.2%
- viability, T/C [35]: 58.2%
- viability, T/C [36]: 56.7%

SMILES: COc1cccc2c1C(=O)c1c(O)c3c(c(O)c1C2=O)CC(O)(C(=O)CO)CC3OC1CC(N)C(O)C(C)O1 (stereo not drawn) + Cc1cnc(CNC(=O)c2c(=O)c3ccc(N4CCCN(C)CC4)nc3n3c2sc2ccccc23)cn1
- IC50 (second compound 0.0316 µM): 878 nM
- IC50 (second compound 0.1 µM): 769 nM
- IC50 (second compound 0.316 µM): 1040 nM
- IC50 (second compound 1 µM): 869 nM
- IC50 (second compound 3.16 µM): 684 nM
- IC50 (second compound 10 µM): 399 nM
- viability, T/C [1]: 88.3%
- viability, T/C [2]: 87.2%
- viability, T/C [3]: 81.8%
- viability, T/C [4]: 44.3%
- viability, T/C [5]: 23.4%
- viability, T/C [6]: 11.9%
- viability, T/C [7]: 83.8%
- viability, T/C [8]: 77.2%
- viability, T/C [9]: 76.8%
- viability, T/C [10]: 40.7%
- viability, T/C [11]: 22.5%
- viability, T/C [12]: 10.7%
- viability, T/C [13]: 73.5%
- viability, T/C [14]: 80.8%
- viability, T/C [15]: 63.3%
- viability, T/C [16]: 52.1%
- viability, T/C [17]: 26.3%
- viability, T/C [18]: 6.61%
- viability, T/C [19]: 63%
- viability, T/C [20]: 70.4%
- viability, T/C [21]: 67.3%
- viability, T/C [22]: 45.4%
- viability, T/C [23]: 21.8%
- viability, T/C [24]: 4.42%
- viability, T/C [25]: 64.2%
- viability, T/C [26]: 64.1%
- viability, T/C [27]: 68%
- viability, T/C [28]: 40.9%
- viability, T/C [29]: 16%
- viability, T/C [30]: 0.58%
- viability, T/C [31]: 57.3%
- viability, T/C [32]: 55.8%
- viability, T/C [33]: 55.8%
- viability, T/C [34]: 35.3%
- viability, T/C [35]: 11.9%
- viability, T/C [36]: 0.28%

— PubChem BioAssay AID2060499 (Molecular Pharmacology Branch, DTP, NCI, 2025)
